Assay results taken from patent US20220279826A1, “OFF-FLAVOR SUPPRESSING AGENT” (AJINOMOTO CO., INC., priority 2019, published 2022).

Legend:
[1] = Sensory evaluation of off-taste suppressing effect in 0.8 wt % potassium chloride aqueous solution (Experimental Examples 1 and 2); conditions: for off-taste suppressing effect: 0.8 wt % potassium chloride aqueous solution; for intensity of off-tastes (bitter taste, metallic taste, harsh taste, astringent taste) derived from potassium chloride: potassium chloride aqueous solutions, Tables 1 to 14
Procedure: Each compound shown in the following Tables 1 to 13 was added to a 0.8 wt % potassium chloride aqueous solution at the concentration (addition concentration) shown in the following Tables 1 to 13 to prepare each evaluation sample.
Based on the following evaluation criteria, a panel of two experts determined by consensus the intensity of off-tastes (bitter taste, metallic taste, harsh taste, astringent taste) derived from potassium chloride in each evaluation sample, by reference to each potassium chloride aqueous solution adjusted to 0.8 wt %, 0.75 wt %, 0.7 wt %, or 0.65 wt %.
−: intensity of the same level as potassium chloride aqueous solution with potassium chloride concentration of not less than 0.8 wt %
+: intensity of the same level as potassium chloride aqueous solution with potassium chloride concentration of not less than 0.75 wt % and less than 0.8 wt %
++: intensity of the same level as potassium chloride aqueous solution with potassium chloride concentration of not less than 0.7 wt % and less than 0.75 wt %
+++: intensity of the same level as potassium chloride aqueous solution with potassium chloride concentration of not less than 0.65 wt % and less than 0.7 wt %
Each compound shown in the following Table 14 was added to a 0.8 wt % potassium chloride aqueous solution at the concentration (addition concentration) shown in the following Table 14 to prepare each evaluation sample.

[2] = Sensory evaluation in potage solution with potassium chloride (Experimental Example 3); conditions: Potage solution with 0.8 wt % potassium chloride
Procedure: (§1) As shown in the following (1) to (3) below, 0.8 wt % of potassium chloride was added to a food base powder corresponding to 0.5 wt % of sodium chloride to prepare each base solution having an off-taste derived from potassium chloride.
Potassium chloride (0.8 g) was added to a commercially available powdered instant potage (manufactured by Ajinomoto Co., Inc., trade name “Knorr (registered trade mark) Cup Soup Potage”) (7.1 g), hot water (92.1 g) was added to dissolve the mixture to prepare a base solution (potage solution).
(§2) Each compound shown in the following Tables 15 to 17 was added to each base solution (ramen noodle soup solution, chicken broth solution, potage solution) so as to achieve the concentration (addition concentration) shown in the following Tables 15 to 17 to prepare each evaluation sample.
(§3) By a method similar to that in Experimental Example 1, a panel of two experts determined the intensity of off-tastes (bitter taste, metallic taste, harsh taste, astringent taste) derived from potassium chloride in each evaluation sample.

[3] = Sensory evaluation in ramen noodle soup solution with potassium chloride (Experimental Example 3); conditions: for off-taste suppressing effect: Ramen noodle soup solution with 0.8 wt % potassium chloride; for intensity of off-tastes (bitter taste, metallic taste, harsh taste, astringent taste) derived from potassium chloride: base solutions of Tables 15 to 17 (ramen noodle soup, chicken broth, potage)
Procedure: as §1
Potassium chloride (0.8 g) was added to a soup powder (1.1 g) of a commercially available instant ramen noodle (manufactured by SANYO FOODS Co., Ltd., trade name “Sapporo Ichiban Shouyuaji”), hot water (98.1 g) was added to dissolve the mixture to prepare a base solution (ramen noodle soup solution).
as §2, §3

[4] = Sensory evaluation in chicken broth solution with potassium chloride (Experimental Example 3); conditions: chicken broth solution with 0.8 wt % potassium chloride
Procedure: as §1
Potassium chloride (0.8 g) was added to a commercially available powdered chicken broth mix (manufactured by Ajinomoto Co., Inc., trade name “Marutorigara Soup”) (1.0 g), hot water (98.2 g) was added to dissolve the mixture to prepare a base solution (chicken broth soup solution).
as §2, §3

[5] = addition concentration 1 weight ppb (0.125 weight ppm with respect to potassium chloride)
[6] = addition concentration 5 weight ppb (0.625 weight ppm with respect to potassium chloride)
[7] = addition concentration 10 weight ppb (1.25 weight ppm with respect to potassium chloride)
[8] = addition concentration 50 weight ppb (6.25 weight ppm with respect to potassium chloride)
[9] = addition concentration 100 weight ppb (12.5 weight ppm with respect to potassium chloride)
[10] = addition concentration 500 weight ppb (62.5 weight ppm with respect to potassium chloride)
[11] = addition concentration 10 ppb (1.25 weight ppm with respect to potassium chloride)
[12] = addition concentration 100 ppb (12.5 weight ppm with respect to potassium chloride)

SMILES | off-taste suppressing effect [1, 5] | off-taste suppressing effect [1, 6] | off-taste suppressing effect [1, 7] | off-taste suppressing effect [1, 8] | off-taste suppressing effect [1, 9] | off-taste suppressing effect [1, 10] | off-taste suppressing effect ([1]; addition concentration 1000 weight ppb (125 weight ppm with respect to potassium chloride)) | intensity of off-tastes (bitter taste, metallic taste, harsh taste, astringent taste) derived from potassium chloride [1] | off-taste suppressing effect [2, 11] | off-taste suppressing effect [3, 11] | intensity of off-tastes (bitter taste, metallic taste, harsh taste, astringent taste) derived from potassium chloride [3] | off-taste suppressing effect [4, 11] | off-taste suppressing effect [2, 12] | off-taste suppressing effect [3, 12] | off-taste suppressing effect [4, 12]
CC1=C(O)C(=O)OC1C (stereo not drawn) [4,5-dimethyl-3-hydroxy-2(5H)-furanone] | + (intensity of the same level as potassium chloride aqueous solution with potassium chloride concentration of not less than 0.75 wt % and less than 0.8 wt %) | ++ (intensity of the same level as potassium chloride aqueous solution with potassium chloride concentration of not less than 0.7 wt % and less than 0.75 wt %) | ++ (intensity of the same level as potassium chloride aqueous solution with potassium chloride concentration of not less than 0.7 wt % and less than 0.75 wt %) | + (intensity of the same level as potassium chloride aqueous solution with potassium chloride concentration of not less than 0.75 wt % and less than 0.8 wt %) | + (intensity of the same level as potassium chloride aqueous solution with potassium chloride concentration of not less than 0.75 wt % and less than 0.8 wt %) | + (intensity of the same level as potassium chloride aqueous solution with potassium chloride concentration of not less than 0.75 wt % and less than 0.8 wt %) | + (intensity of the same level as potassium chloride aqueous solution with potassium chloride concentration of not less than 0.75 wt % and less than 0.8 wt %) | decreased | ++ (intensity of the same level as potassium chloride aqueous solution with potassium chloride concentration of not less than 0.7 wt % and less than 0.75 wt %) | ++ (intensity of the same level as potassium chloride aqueous solution with potassium chloride concentration of not less than 0.7 wt % and less than 0.75 wt %) | decreased | ++ (intensity of the same level as potassium chloride aqueous solution with potassium chloride concentration of not less than 0.7 wt % and less than 0.75 wt %) | – | – | –
CC1=C(O)C(=O)C(C)O1 (stereo not drawn) [4-hydroxy-2,5-dimethyl-3(2H)-furanone] | + (intensity of the same level as potassium chloride aqueous solution with potassium chloride concentration of not less than 0.75 wt % and less than 0.8 wt %) | + (intensity of the same level as potassium chloride aqueous solution with potassium chloride concentration of not less than 0.75 wt % and less than 0.8 wt %) | ++ (intensity of the same level as potassium chloride aqueous solution with potassium chloride concentration of not less than 0.7 wt % and less than 0.75 wt %) | ++ (intensity of the same level as potassium chloride aqueous solution with potassium chloride concentration of not less than 0.7 wt % and less than 0.75 wt %) | ++ (intensity of the same level as potassium chloride aqueous solution with potassium chloride concentration of not less than 0.7 wt % and less than 0.75 wt %) | – | – | decreased | ++ (intensity of the same level as potassium chloride aqueous solution with potassium chloride concentration of not less than 0.7 wt % and less than 0.75 wt %) | ++ (intensity of the same level as potassium chloride aqueous solution with potassium chloride concentration of not less than 0.7 wt % and less than 0.75 wt %) | decreased | ++ (intensity of the same level as potassium chloride aqueous solution with potassium chloride concentration of not less than 0.7 wt % and less than 0.75 wt %) | – | – | –
CC1=C(O)C(=O)CO1 [4-hydroxy-5-methyl-3(2H)-furanone] | + (intensity of the same level as potassium chloride aqueous solution with potassium chloride concentration of not less than 0.75 wt % and less than 0.8 wt %) | + (intensity of the same level as potassium chloride aqueous solution with potassium chloride concentration of not less than 0.75 wt % and less than 0.8 wt %) | + (intensity of the same level as potassium chloride aqueous solution with potassium chloride concentration of not less than 0.75 wt % and less than 0.8 wt %) | ++ (intensity of the same level as potassium chloride aqueous solution with potassium chloride concentration of not less than 0.7 wt % and less than 0.75 wt %) | ++ (intensity of the same level as potassium chloride aqueous solution with potassium chloride concentration of not less than 0.7 wt % and less than 0.75 wt %) | + (intensity of the same level as potassium chloride aqueous solution with potassium chloride concentration of not less than 0.75 wt % and less than 0.8 wt %) | – | decreased | – | – | decreased | – | ++ (intensity of the same level as potassium chloride aqueous solution with potassium chloride concentration of not less than 0.7 wt % and less than 0.75 wt %) | ++ (intensity of the same level as potassium chloride aqueous solution with potassium chloride concentration of not less than 0.7 wt % and less than 0.75 wt %) | ++ (intensity of the same level as potassium chloride aqueous solution with potassium chloride concentration of not less than 0.7 wt % and less than 0.75 wt %)
